In patent US12552775B2, “Compounds and uses thereof” (Foghorn Therapeutics Inc., priority 2020, dated 2026):

Experiments:
[1] = biological target: T1, HiBit-BRG1 fusion protein (Homo sapiens, UniProt P51532); assay: HiBiT-BRG1 cell-based degradation assay (Nano-Glo HiBiT Lytic Detection, 24 h); conditions: stable HeLa cell line expressing HiBit-BRG1 and LgBit, top dose 30 μM, read-out: BRG1 HiBit Degradation Maximum (%)
T1 construct: expressed in transfected cells
Outline: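 HeLa cells stably expressing HiBiT-BRG1 plus LgBiT were treated with 10-point 3-fold compound dilutions (top 30 μM final) for 24 h. Lytic Nano-Glo HiBiT luminescence was read. % degradation was normalised between DMSO (high control) and 2 μM of a reference BRM/BRG1 degrader (low control).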

HiBit-BRM fusion protein = biological target: T2, HiBit-BRM fusion protein (Homo sapiens, UniProt P51531); assay: HiBiT-BRM cell-based degradation assay (Nano-Glo HiBiT Lytic Detection, 24 h); conditions: stable HeLa cell line expressing HiBiT-BRM, top dose 30 μM
T2 construct: expressed in transfected cells
Outline: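 Stable HiBiT-BRM HeLa cells treated 24 h with 10-point 3-fold dilutions, top final dose 30 μM, in duplicate. Luminescence read after lytic LgBiT reagent. Percent degradation was normalised to DMSO (high control) and 2 μM reference BRM/BRG1 degrader (low control).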

T2 sequence (P51531 whole entry, the tested form may be a part): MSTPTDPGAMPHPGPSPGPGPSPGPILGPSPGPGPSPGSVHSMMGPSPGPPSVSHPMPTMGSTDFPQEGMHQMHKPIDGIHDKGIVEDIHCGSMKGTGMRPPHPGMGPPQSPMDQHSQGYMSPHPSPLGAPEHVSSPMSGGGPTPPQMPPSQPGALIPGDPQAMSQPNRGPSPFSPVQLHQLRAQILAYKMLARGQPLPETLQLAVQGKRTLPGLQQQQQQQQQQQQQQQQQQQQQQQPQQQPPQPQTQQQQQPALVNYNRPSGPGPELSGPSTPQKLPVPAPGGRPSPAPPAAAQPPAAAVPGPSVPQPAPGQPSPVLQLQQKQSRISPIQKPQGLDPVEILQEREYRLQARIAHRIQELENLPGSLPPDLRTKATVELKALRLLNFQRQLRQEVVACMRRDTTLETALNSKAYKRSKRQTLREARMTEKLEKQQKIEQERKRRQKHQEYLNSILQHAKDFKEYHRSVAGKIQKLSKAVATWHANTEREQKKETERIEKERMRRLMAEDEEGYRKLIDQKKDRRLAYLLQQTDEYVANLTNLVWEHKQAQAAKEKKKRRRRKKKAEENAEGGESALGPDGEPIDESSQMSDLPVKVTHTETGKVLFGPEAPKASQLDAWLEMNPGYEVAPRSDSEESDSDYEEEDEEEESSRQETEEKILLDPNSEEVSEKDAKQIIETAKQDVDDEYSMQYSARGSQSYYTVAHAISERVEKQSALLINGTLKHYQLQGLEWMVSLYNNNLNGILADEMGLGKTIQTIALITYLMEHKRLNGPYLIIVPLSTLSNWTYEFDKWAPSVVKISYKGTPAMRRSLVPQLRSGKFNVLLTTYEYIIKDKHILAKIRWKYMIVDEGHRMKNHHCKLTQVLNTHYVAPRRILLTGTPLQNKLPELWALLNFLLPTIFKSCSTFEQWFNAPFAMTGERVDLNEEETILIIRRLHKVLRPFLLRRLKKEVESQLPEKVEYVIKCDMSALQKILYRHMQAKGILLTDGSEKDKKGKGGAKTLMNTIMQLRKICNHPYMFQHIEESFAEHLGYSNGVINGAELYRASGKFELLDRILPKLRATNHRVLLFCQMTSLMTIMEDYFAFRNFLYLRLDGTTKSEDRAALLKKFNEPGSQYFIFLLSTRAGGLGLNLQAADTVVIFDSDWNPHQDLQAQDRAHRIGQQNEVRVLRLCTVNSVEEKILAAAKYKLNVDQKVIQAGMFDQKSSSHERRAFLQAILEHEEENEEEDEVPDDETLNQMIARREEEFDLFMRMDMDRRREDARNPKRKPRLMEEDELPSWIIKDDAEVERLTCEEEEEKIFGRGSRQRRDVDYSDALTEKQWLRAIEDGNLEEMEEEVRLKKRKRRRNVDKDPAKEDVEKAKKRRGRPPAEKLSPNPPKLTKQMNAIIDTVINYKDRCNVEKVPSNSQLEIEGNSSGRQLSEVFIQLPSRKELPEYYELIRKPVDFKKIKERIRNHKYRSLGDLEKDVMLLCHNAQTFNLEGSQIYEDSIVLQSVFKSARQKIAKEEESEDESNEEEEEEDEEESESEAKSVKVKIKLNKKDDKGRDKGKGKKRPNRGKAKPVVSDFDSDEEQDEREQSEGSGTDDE
T1 sequence (P51532 whole entry, the tested form may be a part): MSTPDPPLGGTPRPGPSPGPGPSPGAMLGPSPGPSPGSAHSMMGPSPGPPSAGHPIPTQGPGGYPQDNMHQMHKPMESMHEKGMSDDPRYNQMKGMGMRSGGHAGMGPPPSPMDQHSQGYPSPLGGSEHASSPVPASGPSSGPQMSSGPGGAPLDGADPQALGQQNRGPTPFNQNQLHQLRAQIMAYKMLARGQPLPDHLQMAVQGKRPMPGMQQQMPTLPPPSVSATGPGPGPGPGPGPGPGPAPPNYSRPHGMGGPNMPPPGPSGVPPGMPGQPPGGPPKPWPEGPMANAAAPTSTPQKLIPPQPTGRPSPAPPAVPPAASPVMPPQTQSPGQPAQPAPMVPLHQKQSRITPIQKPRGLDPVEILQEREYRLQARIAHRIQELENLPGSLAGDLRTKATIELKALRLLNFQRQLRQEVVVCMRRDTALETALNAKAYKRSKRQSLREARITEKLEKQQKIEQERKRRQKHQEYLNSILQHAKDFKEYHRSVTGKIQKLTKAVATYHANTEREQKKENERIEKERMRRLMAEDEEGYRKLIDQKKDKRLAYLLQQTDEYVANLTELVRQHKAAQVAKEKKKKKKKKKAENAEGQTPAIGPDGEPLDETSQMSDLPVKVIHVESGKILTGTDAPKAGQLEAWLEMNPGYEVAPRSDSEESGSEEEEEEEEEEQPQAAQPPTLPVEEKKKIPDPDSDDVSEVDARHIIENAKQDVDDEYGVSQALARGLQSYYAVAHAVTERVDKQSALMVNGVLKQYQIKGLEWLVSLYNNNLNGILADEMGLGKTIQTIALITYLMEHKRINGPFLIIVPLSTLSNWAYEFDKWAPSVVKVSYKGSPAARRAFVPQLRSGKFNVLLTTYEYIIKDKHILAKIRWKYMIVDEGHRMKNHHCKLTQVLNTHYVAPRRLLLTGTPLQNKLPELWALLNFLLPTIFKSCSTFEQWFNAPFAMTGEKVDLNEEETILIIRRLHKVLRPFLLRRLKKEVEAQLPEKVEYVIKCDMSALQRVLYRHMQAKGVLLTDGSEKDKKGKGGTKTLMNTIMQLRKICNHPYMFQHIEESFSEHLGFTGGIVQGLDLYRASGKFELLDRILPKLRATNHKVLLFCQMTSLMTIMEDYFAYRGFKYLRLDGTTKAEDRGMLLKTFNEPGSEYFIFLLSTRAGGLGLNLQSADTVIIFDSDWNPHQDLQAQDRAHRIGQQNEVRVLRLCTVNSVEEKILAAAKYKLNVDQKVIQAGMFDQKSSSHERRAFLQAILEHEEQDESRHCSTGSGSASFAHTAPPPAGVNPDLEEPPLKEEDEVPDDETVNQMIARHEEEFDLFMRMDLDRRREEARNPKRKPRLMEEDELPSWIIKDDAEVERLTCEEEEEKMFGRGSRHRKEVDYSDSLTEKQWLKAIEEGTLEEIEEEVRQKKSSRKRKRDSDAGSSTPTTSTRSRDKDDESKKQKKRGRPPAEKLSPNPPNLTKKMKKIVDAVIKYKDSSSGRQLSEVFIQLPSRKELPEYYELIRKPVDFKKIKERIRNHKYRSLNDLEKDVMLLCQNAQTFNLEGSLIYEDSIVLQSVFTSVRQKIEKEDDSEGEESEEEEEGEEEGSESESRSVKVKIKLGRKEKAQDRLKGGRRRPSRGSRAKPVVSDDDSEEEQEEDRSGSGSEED

| SMILES | Dmax [1] [%] | BRM HiBit Degradation Maximum (%) (HiBit-BRM fusion protein) |
| --- | --- | --- |
| CN(CCNC(=O)COc1cccc2c1C(=O)N(C1CCC(=O)NC1=O)C2=O)CCNC(=O)C12CC(COc3cc(-c4ccccc4O)nnc3N)(C1)C2 (stereo not drawn) [Compound 75, 3-(((3-amino-6-(2-hydroxyphenyl)pyridazin-4-yl)oxy)methyl)-N-(2-((2-(2-((2-(2,6-dioxopiperidin-3-yl)-1,3-dioxoisoindolin-4-yl)oxy)acetamido)ethyl)(methyl)amino)ethyl)bicyclo[1.1.1]pentane-1-carboxamide] | < 50 | C (“C” indicates maximum degradation < 50%) |
| Nc1nnc(-c2ccccc2O)cc1OCCC12CC(NC(=O)CCOCCOCCOc3ccc4c(c3)C(=O)N(C3CCC(=O)NC3=O)C4=O)(C1)C2 (stereo not drawn) [Compound 31, N-(3-(2-((3-amino-6-(2-hydroxyphenyl)pyridazin-4-yl)oxy)ethyl)bicyclo[1.1.1]pentan-1-yl)-3-(2-(2-((2-(2,6-dioxopiperidin-3-yl)-1,3-dioxoisoindolin-5-yl)oxy)ethoxy)ethoxy)propanamide] | < 50 | C (“C” indicates maximum degradation < 50%) |
| Nc1nnc(-c2ccccc2O)cc1OCC12CC(C(=O)NCCCC#Cc3cccc4c3C(=O)N(C3CCC(=O)NC3=O)C4=O)(C1)C2 (stereo not drawn) [Compound 88, 3-(((3-amino-6-(2-hydroxyphenyl)pyridazin-4-yl)oxy)methyl)-N-(5-(2-(2,6-dioxopiperidin-3-yl)-1,3-dioxoisoindolin-4-yl)pent-4-yn-1-yl)bicyclo[1.1.1]pentane-1-carboxamide] | < 50 | C (“C” indicates maximum degradation < 50%) |
| Nc1nnc(-c2ccccc2O)cc1OCC12CC(CNC(=O)CCCCCCCCCCNc3cccc4c3C(=O)N(C3CCC(=O)NC3=O)C4=O)(C1)C2 (stereo not drawn) [Compound 8, N-[[3-([[3-amino-6-(2-hydroxyphenyl)pyridazin-4-yl]oxy]methyl)bicyclo[1.1.1]pentan-1-yl]methyl]-11-[[2-(2,6-dioxopiperidin-3-yl)-1,3-dioxoisoindol-4-yl]amino]undecanamide] | < 50 | C (“C” indicates maximum degradation < 50%) |
| Nc1nnc(-c2ccccc2O)cc1OCC12CC(CNC(=O)CCN3CC4(C3)CN(c3ccc5c(c3)C(=O)N(C3CCC(=O)NC3=O)C5=O)C4)(C1)C2 (stereo not drawn) [Compound 17, N-((3-(((3-amino-6-(2-hydroxyphenyl)pyridazin-4-yl)oxy)methyl)bicyclo[1.1.1]pentan-1-yl)methyl)-3-(6-(2-(2,6-dioxopiperidin-3-yl)-1,3-dioxoisoindolin-5-yl)-2,6-diazaspiro [3.3]heptan-2-yl)propanamide] | < 50 | C (“C” indicates maximum degradation < 50%) |
| Nc1nnc(-c2ccccc2O)cc1OCC12CC(C(=O)NCCCCNc3ccc4c(c3)C(=O)N(C3CCC(=O)NC3=O)C4=O)(C1)C2 (stereo not drawn) [Compound 62, formic acid] | < 50 | C (“C” indicates maximum degradation < 50%) |
| Nc1nnc(-c2ccccc2O)cc1OCCC12CC(NC(=O)CCN3CCN(c4ccc5c(c4)C(=O)N(C4CCC(=O)NC4=O)C5=O)CC3)(C1)C2 (stereo not drawn) [Compound 33, N-(3-(2-((3-amino-6-(2-hydroxyphenyl)pyridazin-4-yl)oxy)ethyl)bicyclo[1.1.1]pentan-1-yl)-3-(4-(2-(2,6-dioxopiperidin-3-yl)-1,3-dioxoisoindolin-5-yl)piperazin-1-yl)propanamide] | < 50 | C (“C” indicates maximum degradation < 50%) |
| Nc1nnc(-c2ccccc2O)cc1OCCC12CC(NC(=O)CCOCCOCCOc3cccc4c3C(=O)N(C3CCC(=O)NC3=O)C4=O)(C1)C2 (stereo not drawn) [Compound 30, N-(3-(2-((3-amino-6-(2-hydroxyphenyl)pyridazin-4-yl)oxy)ethyl)bicyclo[1.1.1]pentan-1-yl)-3-(2-(2-((2-(2,6-dioxopiperidin-3-yl)-1,3-dioxoisoindolin-4-yl)oxy)ethoxy)ethoxy)propanamide] | < 50 | C (“C” indicates maximum degradation < 50%) |
| Nc1nnc(-c2ccccc2O)cc1OCC12CC(CNC(=O)CCCOc3cccc4c3C(=O)N(C3CCC(=O)NC3=O)C4=O)(C1)C2 (stereo not drawn) [Compound 2, N-[[3-([[3-amino-6-(2-hydroxyphenyl)pyridazin-4-yl]oxy]methyl)bicyclo[1.1.1]pentan-1-yl]methyl]-4-[[2-(2,6-dioxopiperidin-3-yl)-1,3-dioxoisoindol-4-yl]oxy]butanamide] | < 50 | C (“C” indicates maximum degradation < 50%) |
| Nc1nnc(-c2ccccc2O)cc1OCC12CC(CNC(=O)CCOCCOCCNc3cccc4c3C(=O)N(C3CCC(=O)NC3=O)C4=O)(C1)C2 (stereo not drawn) [Compound 11, N-[[3-([[3-amino-6-(2-hydroxyphenyl)pyridazin-4-yl]oxy]methyl)bicyclo[1.1.1]pentan-1-yl]methyl]-3-[2-(2-[[2-(2,6-dioxopiperidin-3-yl)-1,3-dioxoisoindol-4-yl]amino]ethoxy)ethoxy]propanamide] | < 50 | C (“C” indicates maximum degradation < 50%) |
| Cc1nc2cccc(NCCCCCCNC(=O)C34CC(COc5cc(-c6ccccc6O)nnc5N)(C3)C4)c2c(=O)n1C1CCC(=O)NC1=O (stereo not drawn) [Compound 67, 3-(((3-amino-6-(2-hydroxyphenyl)pyridazin-4-yl)oxy)methyl)-N-(6-((3-(2,6-dioxopiperidin-3-yl)-2-methyl-4-oxo-3,4-dihydroquinazolin-5-yl)amino)hexyl)bicyclo[1.1.1]pentane-1-carboxamide] | < 50 | C (“C” indicates maximum degradation < 50%) |
| Cc1ncsc1-c1ccc(CNC(=O)[C@@H]2C[C@@H](O)CN2C(=O)[C@@H](NC(=O)CCCCC(=O)NC23CC(CCOc4cc(-c5ccccc5O)nnc4N)(C2)C3)C(C)(C)C)cc1 [Compound 43, N1-(3-(2-((3-amino-6-(2-hydroxyphenyl)pyridazin-4-yl)oxy)ethyl)bicyclo[1.1.1]pentan-1-yl)-N6-((S)-1-((2S,4R)-4-hydroxy-2-((4-(4-methylthiazol-5-yl)benzyl)carbamoyl)pyrrolidin-1-yl)-3,3-dimethyl-1-oxobutan-2-yl)adipamide] | > 75 | A (“A” indicates maximum degradation ≥ 75%) |
| Cc1ncsc1-c1ccc(CNC(=O)[C@@H]2C[C@@H](O)CN2C(=O)[C@@H](NC(=O)CCCCCCCCCCCCC(=O)NC23CC(CCOc4cc(-c5ccccc5O)nnc4N)(C2)C3)C(C)(C)C)cc1 [Compound 49, N1-(3-(2-((3-amino-6-(2-hydroxyphenyl)pyridazin-4-yl)oxy)ethyl)bicyclo[1.1.1]pentan-1-yl)-N14-((S)-1-((2S,4R)-4-hydroxy-2-((4-(4-methylthiazol-5-yl)benzyl)carbamoyl)pyrrolidin-1-yl)-3,3-dimethyl-1-oxobutan-2-yl)tetradecanediamide] | < 50 | C (“C” indicates maximum degradation < 50%) |
| Cc1ncsc1-c1ccc(CNC(=O)[C@@H]2C[C@@H](O)CN2C(=O)[C@@H](NC(=O)CCCCCCCCCCC(=O)NC23CC(CCOc4cc(-c5ccccc5O)nnc4N)(C2)C3)C(C)(C)C)cc1 [Compound 47, N1-(3-(2-((3-amino-6-(2-hydroxyphenyl)pyridazin-4-yl)oxy)ethyl)bicyclo[1.1.1]pentan-1-yl)-N12-((S)-1-((2S,4R)-4-hydroxy-2-((4-(4-methylthiazol-5-yl)benzyl)carbamoyl)pyrrolidin-1-yl)-3,3-dimethyl-1-oxobutan-2-yl)dodecanediamide] | < 50 | B (“B” indicates maximum degradation ≥ 50%) |
| Nc1nnc(-c2ccccc2O)cc1OCC12CC(C(=O)NCCCCCCCCNc3cccc4c3C(=O)N(C3CCC(=O)NC3=O)C4=O)(C1)C2 (stereo not drawn) [Compound 57, 3-(((3-amino-6-(2-hydroxyphenyl)pyridazin-4-yl)oxy)methyl)-N-(8-((2-(2,6-dioxopiperidin-3-yl)-1,3-dioxoisoindolin-4-yl)amino)octyl)bicyclo[1.1.1]pentane-1-carboxamide] | < 50 | C (“C” indicates maximum degradation < 50%) |
| Nc1nnc(-c2ccccc2O)cc1OCC12CC(C(=O)N3CCN(CCCOc4ccc5c(c4)C(=O)N(C4CCC(=O)NC4=O)C5=O)CC3)(C1)C2 (stereo not drawn) [Compound 97, 5-(3-(4-(3-(((3-amino-6-(2-hydroxyphenyl)pyridazin-4-yl)oxy)methyl)bicyclo[1.1.1]pentane-1-carbonyl)piperazin-1-yl)propoxy)-2-(2,6-dioxopiperidin-3-yl)isoindoline-1,3-dione; formic acid] | < 50 | C (“C” indicates maximum degradation < 50%) |
| Nc1nnc(-c2ccccc2O)cc1OCC12CC(C(=O)N3CC(Oc4ccc5c(c4)C(=O)N(C4CCC(=O)NC4=O)C5=O)C3)(C1)C2 (stereo not drawn) [Compound 96, 5-((1-(3-(((3-amino-6-(2-hydroxyphenyl)pyridazin-4-yl)oxy)methyl)bicyclo[1.1.1]pentane-1-carbonyl)azetidin-3-yl)oxy)-2-(2,6-dioxopiperidin-3-yl)isoindoline-1,3-dione] | < 50 | C (“C” indicates maximum degradation < 50%) |
| Nc1nnc(-c2ccccc2O)cc1OCC12CC(CNC(=O)C3CC3CNC(=O)COc3ccc4c(c3)C(=O)N(C3CCC(=O)NC3=O)C4=O)(C1)C2 (stereo not drawn) [Compound 13, N-[[3-([[3-amino-6-(2-hydroxyphenyl)pyridazin-4-yl]oxy]methyl)bicyclo[1.1.1]pentan-1-yl]methyl]-2-[(2-[[2-(2,6-dioxopiperidin-3-yl)-1,3-dioxoisoindol-5-yl]oxy]acetamido)methyl]cyclopropane-1-carboxamide] | < 50 | C (“C” indicates maximum degradation < 50%) |
